The record followed here is ChEMBL document CHEMBL4311957, “Recent advances in natural antifungal flavonoids and their derivatives” (Bioorg Med Chem Lett, 2019).

Format in all cases: functional
The subject of assay [1] is Pichia kudriavzevii. Nature of the assay: Antifungal activity against FLC-resistant Candida krusei DSM 6128.
Assay [2] concerns Candida tropicalis. Nature of the assay: Antifungal activity against FLC-resistant Candida tropicalis KKP 334.
Assay [3] concerns Nakaseomyces glabratus. Nature of the assay: Fungicidal activity against FLC-resistant Candida glabrata DSM 11226.
For assay [4], the system named is Clavispora lusitaniae. Nature of the assay: Antifungal activity against FLC-resistant Candida lusitaniae DSM 70102.
In assay [5] the test system is Candida dubliniensis. Nature of the assay: Antifungal activity against FLC-resistant Candida dubliniensis CBS 7987.
Assay [6] can be described thus: Antifungal activity against FLC-resistant Candida arborea KKP 319.
For assay [7], the system named is Candida parapsilosis. Nature of the assay: Fungicidal activity against FLC-resistant Candida parapsilosis DSM 5784. The following applies: Lodderomyces parapsilosis.
Assay [8] deals with Candida albicans. Nature of the assay: Antifungal activity against FLC-resistant Candida stellatoidea CBS 1905.
Assay [9] has as its system Yarrowia lipolytica. Nature of the assay: Antifungal activity against FLC-resistant Candida lipolytica KKP 332.
Assay [10] concerns Meyerozyma guilliermondii. Nature of the assay: Fungicidal activity against FLC-resistant Candida guilliermondii DSM 11947.
The test system of assay [11] is Candida albicans. Nature of the assay: Antifungal activity against FLC-resistant Candida albicans ATCC 10231.
Assay [12] concerns Kluyveromyces marxianus. Nature of the assay: Fungicidal activity against FLC-resistant Candida pseudotropicalis KKP 324.
The subject of assay [13] is Pichia kudriavzevii. As to the kind of experiment: Fungicidal activity against FLC-resistant Candida krusei DSM 6128.
Assay [14] relates to Candida albicans. Nature of the assay: Fungicidal activity against FLC-resistant Candida stellatoidea CBS 1905.
Assay [15] has as its system Kluyveromyces marxianus. Nature of the assay: Antifungal activity against FLC-resistant Candida pseudotropicalis KKP 324.
The subject of assay [16] is Nakaseomyces glabratus. Nature of the assay: Antifungal activity against FLC-resistant Candida glabrata DSM 11226.
Assay [17] deals with Yarrowia lipolytica. Nature of the assay: Fungicidal activity against FLC-resistant Candida lipolytica KKP 332.
Assay [18] concerns Meyerozyma guilliermondii. Nature of the assay: Antifungal activity against FLC-resistant Candida guilliermondii DSM 11947.
Assay [19] has as its system Candida albicans. Nature of the assay: Fungicidal activity against FLC-resistant Candida albicans ATCC 10231.
Assay [20] has as its system Candida tropicalis. Nature of the assay: Fungicidal activity against FLC-resistant Candida tropicalis KKP 334.
Assay [21] can be described thus: Fungicidal activity against FLC-resistant Candida arborea KKP 319.
Assay [22] deals with Clavispora lusitaniae. As to the kind of experiment: Fungicidal activity against FLC-resistant Candida lusitaniae DSM 70102.
For assay [23], the system named is Candida dubliniensis. As to the kind of experiment: Fungicidal activity against FLC-resistant Candida dubliniensis CBS 7987.
Assay [24] deals with Candida parapsilosis. As to the kind of experiment: Antifungal activity against FLC-resistant Candida parapsilosis DSM 5784. The following applies: Lodderomyces parapsilosis.
Assay [25] deals with Candida tropicalis. Nature of the assay: Antifungal activity against Candida tropicalis 156 after 24 to 48 hrs.
Assay [26] has as its system Nakaseomyces glabratus. Nature of the assay: Antifungal activity against Candida glabrata 20/I after 24 to 48 hrs.
The subject of assay [27] is Candida parapsilosis. Nature of the assay: Antifungal activity against Candida parapsilosis ATCC 22019 after 24 hrs. The following applies: Lodderomyces parapsilosis, ATCC 22019, 24 h.
The subject of assay [28] is Trichophyton mentagrophytes. Nature of the assay: Antifungal activity against Trichophyton mentagrophytes after 72 to 120 hrs.
The test system of assay [29] is Pichia kudriavzevii. Nature of the assay: Antifungal activity against Candida krusei ATCC 6258 after 24 hrs. The following applies: ATCC 6258, 24 h.
Assay [30] deals with Aspergillus fumigatus. Nature of the assay: Antifungal activity against Aspergillus fumigatus after 24 to 48 hrs.
In assay [31] the test system is Candida albicans. Nature of the assay: Antifungal activity against Candida albicans ATCC 44859 after 24 to 48 hrs.
The test system of assay [32] is Nakaseomyces glabratus. As to the kind of experiment: Antifungal activity against Candida glabrata ATCC 90030 after 24 hrs. As to conditions: ATCC 90030, 24 h.
Assay [33] concerns Pichia kudriavzevii. As to the kind of experiment: Antifungal activity against Candida krusei E 28 after 24 to 48 hrs.
In assay [34] the test system is Candida albicans. Nature of the assay: Antifungal activity against Candida albicans ATCC 24433 after 24 hrs. The following applies: ATCC 24433, 24 h.
The test system of assay [35] is Candida albicans. Nature of the assay: Synergistic antifungal activity against Candida albicans by microbroth dilution method.
Assay [36] relates to Candida albicans. Nature of the assay: Antifungal activity against Candida albicans after 24 hrs by broth dilution method. A general note: Broth dilution looks for growth in wells or tubes with falling amounts of substance.
Assay [37] has as its system Aspergillus fumigatus. As to the kind of experiment: Antifungal activity against Aspergillus fumigatus after 24 hrs by broth dilution method.
The test system of assay [38] is Candida albicans. Nature of the assay: Antifungal activity against Candida albicans after 48 hrs by agar disc-diffusion method. A general note: Agar diffusion results depend on both activity and mobility in agar.

≈ marks a conversion by molar mass, not a printed value. Where only a bound is given, the exact number is not on record here.

One may read the MIC as the least concentration at which growth counts as inhibited. Take `COc1ccc2oc(=O)sc2c1C(=O)/C=C/c1ccc(OCCN(C)C)cc1`: the minimum inhibitory concentration (MIC) was in the range of 1 to 16 mg/L (≈ 2.5 to 40.1 µM) in [1]; 1 to 16 mg/L (≈ 2.5 to 40.1 µM) in [2]; 8 to 32 mg/L (≈ 20 to 80.1 µM) in [3]; 1 to 16 mg/L (≈ 2.5 to 40.1 µM) in assay [4]; 1 to 16 mg/L (≈ 2.5 to 40.1 µM) in [5]; 1 to 16 mg/L (≈ 2.5 to 40.1 µM) in assay [6]. Moreover, the MIC fell in the range of 8 to 32 mg/L (≈ 20 to 80.1 µM) in assay [7]; 1 to 16 mg/L (≈ 2.5 to 40.1 µM) in assay [8]; 1 to 16 mg/L (≈ 2.5 to 40.1 µM) in assay [9]; 8 to 32 mg/L (≈ 20 to 80.1 µM) in assay [10]; 1 to 16 mg/L (≈ 2.5 to 40.1 µM) in assay [11]; 8 to 32 mg/L (≈ 20 to 80.1 µM) in [12]. Moreover, the MIC in assay [13] lay within 8 to 32 mg/L (≈ 20 to 80.1 µM); in assay [14], 8 to 32 mg/L (≈ 20 to 80.1 µM); in assay [15], 1 to 16 mg/L (≈ 2.5 to 40.1 µM); in assay [16], 1 to 16 mg/L (≈ 2.5 to 40.1 µM); in [17], 8 to 32 mg/L (≈ 20 to 80.1 µM); in assay [18], 1 to 16 mg/L (≈ 2.5 to 40.1 µM). Also, the MIC in [19] was in the range of 8 to 32 mg/L (≈ 20 to 80.1 µM); in assay [20], 8 to 32 mg/L (≈ 20 to 80.1 µM); in assay [21], 8 to 32 mg/L (≈ 20 to 80.1 µM); in assay [22], 8 to 32 mg/L (≈ 20 to 80.1 µM); in assay [23], 8 to 32 mg/L (≈ 20 to 80.1 µM); in assay [24] it was 1 to 16 mg/L (≈ 2.5 to 40.1 µM).
Turning to `O=C(/C=C/c1ccccc1[N+](=O)[O-])c1cnccn1`, the MIC was 7.81 to 500 mg/L (≈ 30.6 to 1960 µM) in [25]; 7.81 to 41.6 mg/L (≈ 30.6 to 163 µM) in assay [26]; 0.78 to 3.12 mg/L (≈ 3.06 to 12.2 µM) in assay [27]; 6.51 to 31.2 mg/L (≈ 25.5 to 122 µM) in assay [28]; 0.78 to 3.12 mg/L (≈ 3.06 to 12.2 µM) in [29]; 7.81 to 500 mg/L (≈ 30.6 to 1960 µM) in [30]. The MIC in assay [31] was 7.81 mg/L (≈ 30.6 µM); in assay [32] it was 0.78 to 3.12 mg/L (≈ 3.06 to 12.2 µM); in [33] it was 7.81 to 125 mg/L (≈ 30.6 to 490 µM); in [34] it was 0.78 to 3.12 mg/L (≈ 3.06 to 12.2 µM).
With `C[C@@H]1O[C@@H](Oc2cc(O)c3c(=O)c(O)c(-c4ccc(O)c(O)c4)oc3c2)[C@H](O)[C@H](O)[C@H]1O`, the minimal inhibitory concentration (MIC) in [35] is > 64 mg/L.
A word on the MFC: it is the lowest tested concentration that kills the fungus rather than only halting it. The molecule `Cc1cc(O)c(C(=O)/C=C/c2coc3ccccc3c2=O)c(=O)o1` had a minimum inhibitory concentration (MIC) in assay [36] of 12.5 mg/L (≈ 38.5 µM). This molecule also displayed a minimal fungicidal concentration (MFC) in assay [37] of 50 mg/L (≈ 154 µM).
Take `O=C(CN1CCCCC1)Nc1ccc(C(=O)/C=C/c2ccc(Cl)cc2)cc1`: in assay [38], the MIC was 2 mg/L (≈ 5.22 µM).
